BindingDB's records for doi:10.1021/bi990204w (National Institute of Diabetes and Digestive and Kidney …, 1999)
Where a SMILES comes first, the peptide text is derived from it. [ ]: non-standard residue; d: D form. The star is where a group is joined. dProψ(CH2NH)PheNH2 = NC(=O)[C@H](Cc1ccccc1)NC[C@H]1CCCN1*; Hydrocinnamoyl = O=C(CCc1ccccc1)*; pGlu = O=C1CC[C@@H](C(=O)O)N1

Experiments:
[1] = target: T1, Bombesin receptor subtype-3 (Homo sapiens, UniProt P32247)
T1 sequence (P32247 whole entry): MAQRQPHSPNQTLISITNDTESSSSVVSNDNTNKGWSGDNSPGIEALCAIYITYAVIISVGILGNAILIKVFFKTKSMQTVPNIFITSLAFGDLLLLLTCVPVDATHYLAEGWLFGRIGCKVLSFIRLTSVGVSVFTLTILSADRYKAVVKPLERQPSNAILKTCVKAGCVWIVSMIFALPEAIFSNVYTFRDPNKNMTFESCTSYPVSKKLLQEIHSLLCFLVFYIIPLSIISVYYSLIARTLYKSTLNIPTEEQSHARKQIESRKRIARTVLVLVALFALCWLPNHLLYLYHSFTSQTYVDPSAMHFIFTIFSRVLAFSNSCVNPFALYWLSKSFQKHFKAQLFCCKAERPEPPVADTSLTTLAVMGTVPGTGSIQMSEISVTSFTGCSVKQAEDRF

Neuromedin-B receptor = target: T2, Neuromedin-B receptor (Rattus norvegicus, UniProt P24053)
T2 sequence (P24053 whole entry): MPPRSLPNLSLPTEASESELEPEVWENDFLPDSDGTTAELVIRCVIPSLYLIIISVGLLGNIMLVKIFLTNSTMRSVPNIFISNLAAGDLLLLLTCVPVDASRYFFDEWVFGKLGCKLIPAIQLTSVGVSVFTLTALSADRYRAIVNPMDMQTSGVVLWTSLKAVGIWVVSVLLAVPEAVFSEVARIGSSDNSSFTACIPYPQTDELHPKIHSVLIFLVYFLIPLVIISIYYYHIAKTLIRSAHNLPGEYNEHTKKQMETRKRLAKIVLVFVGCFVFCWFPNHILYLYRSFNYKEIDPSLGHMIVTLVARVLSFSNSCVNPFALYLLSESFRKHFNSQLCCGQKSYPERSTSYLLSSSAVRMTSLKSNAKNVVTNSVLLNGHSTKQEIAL

[2] = target: Gastrin-releasing peptide receptor (Rattus norvegicus, UniProt P52500)
Chain of Gastrin-releasing peptide receptor (P52500 whole entry N28S): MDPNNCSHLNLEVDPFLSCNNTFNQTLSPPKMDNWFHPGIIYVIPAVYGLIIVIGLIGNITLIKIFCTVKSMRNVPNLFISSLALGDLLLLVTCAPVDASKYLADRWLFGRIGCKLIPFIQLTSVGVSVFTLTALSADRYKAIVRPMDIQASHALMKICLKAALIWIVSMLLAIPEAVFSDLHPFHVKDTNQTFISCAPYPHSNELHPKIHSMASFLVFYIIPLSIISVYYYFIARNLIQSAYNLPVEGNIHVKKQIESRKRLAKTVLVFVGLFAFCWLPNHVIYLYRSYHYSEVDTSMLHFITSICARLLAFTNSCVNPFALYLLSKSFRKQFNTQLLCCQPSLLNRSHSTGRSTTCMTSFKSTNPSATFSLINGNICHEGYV

SMILES	Ki [1] [µM]	Ki (Neuromedin-B receptor) [µM]	Ki [2] [µM]
CSCC[C@H](NC(=O)[C@H](Cc1ccccc1)NC(=O)[C@H](Cc1cnc[nH]1)NC(=O)CNC(=O)[C@@H](NC(=O)[C@H](C)NC(=O)[C@H](Cc1c[nH]c2ccccc12)NC(=O)[C@H](CCC(N)=O)NC(=O)[C@H](CC(N)=O)NC(=O)CNC(=O)[C@H](CC(C)C)NC(=O)[C@H](CCCN=C(N)N)NC(=O)[C@H](CCC(N)=O)NC(=O)[C@@H]1CCC(=O)N1)C(C)C)C(N)=O [Bombesin,Phe13]	6.6	0.006	0.00077
CSCC[C@H](NC(=O)[C@H](Cc1ccccc1)NC(=O)[C@H](Cc1c[nH]cn1)NC(=O)CNC(=O)[C@@H](NC(=O)[C@H](C)NC(=O)[C@H](Cc1c[nH]c2ccccc12)NC(=O)[C@H](CCC(N)=O)NC(=O)[C@@H]1CCCN1C(=O)[C@@H](NC(=O)[C@@H]1CCC(=O)N1)C(C)C)C(C)C)C(N)=O [CAS_29451-71-6] ([pGlu]VPQWAVGHFM-NH2)	6.9	0.013	0.002
CSCC[C@H](NC(=O)[C@H](Cc1ccccc1)NC(=O)[C@H](Cc1cnc[nH]1)NC(=O)CNC(=O)[C@@H](NC(=O)[C@H](CCCN=C(N)N)NC(=O)[C@H](Cc1c[nH]c2ccccc12)NC(=O)[C@H](CCC(N)=O)NC(=O)[C@H](CC(N)=O)NC(=O)CNC(=O)[C@H](CC(C)C)NC(=O)[C@H](CO)NC(=O)[C@H](CCC(N)=O)NC(=O)[C@@H]1CCC(=O)N1)C(C)C)C(N)=O [CAS_31362-50-2] ([pGlu]QSLGNQWRVGHFM-NH2)	7.1	> 10	3.2
CSCC[C@H](NC(=O)[C@H](CC(C)C)NC(=O)[C@H](Cc1c[nH]cn1)NC(=O)CNC(=O)[C@@H](NC(=O)[C@H](C)NC(=O)[C@H](Cc1c[nH]c2ccccc12)NC(=O)[C@H](Cc1c[nH]cn1)NC(=O)[C@H](CC(N)=O)NC(=O)CNC(=O)[C@H](CCCN=C(N)N)NC(=O)[C@@H]1CCCN1C(=O)[C@H](Cc1ccc(O)cc1)NC(=O)[C@H](CCSC)NC(=O)[C@H](CCCCN)NC(=O)[C@@H](NC(=O)[C@H](CC(C)C)NC(=O)[C@@H](NC(=O)[C@@H](NC(=O)CNC(=O)CNC(=O)CNC(=O)[C@H](C)NC(=O)[C@@H]1CCCN1C(=O)[C@H](CC(C)C)NC(=O)[C@@H]1CCCN1C(=O)[C@@H](N)C(C)C)[C@@H](C)O)C(C)C)[C@@H](C)O)C(C)C)C(N)=O [CAS_93755-85-2]	> 10	0.44	
CSCC[C@H](NC(=O)[C@H](Cc1ccccc1)NC(=O)[C@H](Cc1c[nH]cn1)NC(=O)CNC(=O)[C@@H](NC(=O)[C@H](C)NC(=O)[C@H](Cc1c[nH]c2ccccc12)NC(=O)[C@H](CC(C)C)NC(=O)[C@@H]1CCC(=O)N1)[C@@H](C)O)C(N)=O [CAS_125988]	3.1	0.46	0.031
CSCC[C@H](NC(=O)[C@H](Cc1ccccc1)NC(=O)[C@H](Cc1c[nH]cn1)NC(=O)CNC(=O)[C@@H](NC(=O)[C@H](C)NC(=O)[C@H](Cc1c[nH]c2ccccc12)NC(=O)[C@H](CCC(N)=O)NC(=O)[C@@H]1CCC(=O)N1)C(C)C)C(N)=O [CAS_5486808]	4.1	0.007	0.006
CC(C)[C@H](NC(=O)[C@H](C)NC(=O)[C@H](Cc1c[nH]c2ccccc12)NC(=O)[C@H](Cc1cnc[nH]1)NC(=O)CCc1ccccc1)C(=O)N[C@H](C)C(=O)N[C@@H](Cc1cnc[nH]1)C(=O)N1CCC[C@@H]1CN[C@@H](Cc1ccccc1)C(N)=O [CAS_l] (Hydrocinnamoyl-HWAV[dA]H-{dProψ(CH2NH)PheNH2})		> 10	0.00074
CC(C)C[C@H](NC(=O)[C@H](CC(C)C)NC(=O)[C@@H](Cc1ccccc1)NC(=O)CNC(=O)[C@@H](NC(=O)[C@H](C)NC(=O)[C@H](Cc1c[nH]c2ccccc12)NC(=O)[C@H](CCC(N)=O)NC(=O)[C@@H](Cc1ccccc1)NC(=O)CNC(=O)[C@H](CC(C)C)NC(=O)[C@H](CCCN=C(N)N)NC(=O)[C@H](CCC(N)=O)NC(=O)[C@@H]1CCC(=O)N1)C(C)C)C(N)=O [DPhe6,12,Leu14-Bn]	> 10	2.3	0.43
CC(C)C[C@@H](CN[C@@H](Cc1ccc(Cl)cc1)C(N)=O)NC(=O)[C@H](Cc1c[nH]cn1)NC(=O)CNC(=O)[C@@H](NC(=O)[C@H](C)NC(=O)[C@H](Cc1c[nH]c2ccccc12)NC(=O)[C@H](CCC(N)=O)NC(=O)[C@H](N)Cc1ccccc1)C(C)C [DPhe6,Leu13,Psi(CH2NH),Cpa14-Bn(6-14)]	> 10	2.7	0.042
CC(C)C[C@H](NC(=O)[C@H](Cc1cnc[nH]1)NC(=O)CNC(=O)[C@@H](NC(=O)[C@H](C)NC(=O)[C@H](Cc1c[nH]c2ccccc12)NC(=O)[C@H](CCC(N)=O)NC(=O)[C@@H](Cc1ccccc1)NC(=O)CNC(=O)[C@H](CC(C)C)NC(=O)[C@H](CCCN=C(N)N)NC(=O)[C@H](CCC(N)=O)NC(=O)[C@@H]1CCC(=O)N1)C(C)C)C(N)=O [DPhe6-Bn(1-13)NH2]	> 10	> 10	0.45
CC(C)C[C@H](NC(=O)[C@H](Cc1cnc[nH]1)NC(=O)CNC(=O)[C@@H](NC(=O)[C@H](C)NC(=O)[C@H](Cc1c[nH]c2ccccc12)NC(=O)[C@H](CCC(N)=O)NC(=O)[C@H](N)Cc1ccccc1)C(C)C)C(N)=O [DPhe6-Bn(6-13)NH2]	> 10	> 10	0.027
CC(C)C[C@H](NC(=O)[C@H](Cc1cnc[nH]1)NC(=O)CNC(=O)[C@@H](NC(=O)[C@H](C)NC(=O)[C@H](Cc1c[nH]c2ccccc12)NC(=O)[C@H](CCC(N)=O)NC(=O)[C@H](N)Cc1ccccc1)C(C)C)C(=O)NN(C)C [DPhe6-Bn(6-13)NHN(ME)2]	> 10	> 10	3.2
CCCCCCNC(=O)[C@H](CC(C)C)NC(=O)[C@H](Cc1cnc[nH]1)NC(=O)CNC(=O)[C@@H](NC(=O)[C@H](C)NC(=O)[C@H](Cc1c[nH]c2ccccc12)NC(=O)[C@H](CCC(N)=O)NC(=O)[C@H](N)Cc1ccccc1)C(C)C [DPhe6-Bn(6-13)hexylamide]	3.2	> 10	0.1
CC(C)C[C@H](NC(=O)[C@H](Cc1cnc[nH]1)NC(=O)CNC(=O)[C@@H](NC(=O)[C@H](C)NC(=O)[C@H](Cc1c[nH]c2ccccc12)NC(=O)[C@H](CCC(N)=O)NC(=O)[C@H](N)Cc1ccccc1)C(C)C)C(=O)NN [DPhe6-Bn(6-13)hydrazide]	> 10	> 10	1.2
COC(=O)[C@H](CC(C)C)NC(=O)[C@H](Cc1cnc[nH]1)NC(=O)CNC(=O)[C@@H](NC(=O)[C@H](C)NC(=O)[C@H](Cc1c[nH]c2ccccc12)NC(=O)[C@H](CCC(N)=O)NC(=O)[C@H](N)Cc1ccccc1)C(C)C [DPhe6-Bn(6-13)methylester]	5.3	7.7	0.01
CCCNC(=O)[C@H](CC(C)C)NC(=O)[C@H](Cc1cnc[nH]1)NC(=O)CNC(=O)[C@@H](NC(=O)[C@H](C)NC(=O)[C@H](Cc1c[nH]c2ccccc12)NC(=O)[C@H](CCC(N)=O)NC(=O)[C@H](N)Cc1ccccc1)C(C)C [DPhe6-Bn(6-13)propylamide]	1.9	4.6	0.006
CSCC[C@H](NC(=O)[C@H](CC(C)C)NC(=O)[C@H](Cc1cnc[nH]1)NC(=O)CNC(=O)[C@@H](NC(=O)[C@H](C)NC(=O)[C@H](Cc1c[nH]c2ccccc12)NC(=O)[C@H](CCC(N)=O)NC(=O)[C@H](N)Cc1ccccc1)C(C)C)C(N)=O [DPhe6-Bn[6-14)]	> 10	0.014	0.002
CCCCNC(=O)[C@H](CC(C)C)NC(=O)[C@H](Cc1cnc[nH]1)NC(=O)[C@@H](C)NC(=O)[C@@H](NC(=O)[C@H](C)NC(=O)[C@H](Cc1c[nH]c2ccccc12)NC(=O)[C@H](CCC(N)=O)NC(=O)[C@H](N)Cc1ccc(O)cc1)C(C)C [DTyr6,DAla11-Bn(6-13)butylamide]	5.3	2.3	0.006
CSCC[C@H](NC(=O)[C@H](CC(C)C)NC(=O)[C@@H](Cc1ccccc1)NC(=O)CNC(=O)[C@@H](NC(=O)[C@H](C)NC(=O)[C@H](Cc1c[nH]c2ccccc12)NC(=O)[C@H](CCC(N)=O)NC(=O)[C@H](CC(N)=O)NC(=O)CNC(=O)[C@H](CC(C)C)NC(=O)[C@H](CCCN=C(N)N)NC(=O)[C@H](CCC(N)=O)NC(=O)[C@@H]1CCC(=O)N1)C(C)C)C(N)=O [Dphe12-Bn]	> 10	1.9	> 10
CSCC[C@H](NC(=O)[C@H](CC(C)C)NC(=O)[C@H](Cc1cnc[nH]1)NC(=O)CNC(=O)[C@@H](NC(=O)[C@H](C)NC(=O)[C@H](Cc1c[nH]c2ccccc12)NC(=O)[C@H](Cc1cnc[nH]1)NC(=O)[C@H](CC(N)=O)NC(=O)CN)C(C)C)C(N)=O [GRP-10,frog]	> 10	> 10	0.13
